Measured values: ChEMBL document CHEMBL5653631, “A Potent and Selective ULK1 Inhibitor Suppresses Autophagy and Sensitizes Cancer Cells to Nutrient Stress” (iScience, 2018)

What was measured:
[1] = molecular target: T1, Myotonin-protein kinase (Homo sapiens) (UniProt Q09013); experiment: Inhibition of human recombinant DMPK1 at 500 nM related to control ULK1
T1 sequence (whole entry): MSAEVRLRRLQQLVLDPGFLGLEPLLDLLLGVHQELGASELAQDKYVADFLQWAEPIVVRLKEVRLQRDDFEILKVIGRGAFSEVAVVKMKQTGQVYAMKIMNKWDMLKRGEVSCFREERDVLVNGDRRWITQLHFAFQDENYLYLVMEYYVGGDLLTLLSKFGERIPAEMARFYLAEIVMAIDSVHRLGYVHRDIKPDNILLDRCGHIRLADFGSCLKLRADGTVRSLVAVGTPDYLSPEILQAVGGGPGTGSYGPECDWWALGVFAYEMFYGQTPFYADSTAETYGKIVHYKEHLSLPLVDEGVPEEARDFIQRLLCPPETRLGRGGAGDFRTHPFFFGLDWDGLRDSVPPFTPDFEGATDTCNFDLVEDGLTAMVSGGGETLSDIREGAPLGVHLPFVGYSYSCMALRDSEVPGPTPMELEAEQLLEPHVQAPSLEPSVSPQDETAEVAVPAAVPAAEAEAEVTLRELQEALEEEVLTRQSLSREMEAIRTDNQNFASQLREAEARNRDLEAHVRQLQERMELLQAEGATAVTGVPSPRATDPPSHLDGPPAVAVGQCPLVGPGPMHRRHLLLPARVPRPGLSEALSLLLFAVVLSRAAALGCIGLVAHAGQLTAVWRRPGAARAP

[2] = molecular target: T2, Homeodomain-interacting protein kinase 4 (Homo sapiens) (UniProt Q8NE63); experiment: Inhibition of human recombinant HIPK4 at 500 nM related to control ULK1
T2 sequence (whole entry): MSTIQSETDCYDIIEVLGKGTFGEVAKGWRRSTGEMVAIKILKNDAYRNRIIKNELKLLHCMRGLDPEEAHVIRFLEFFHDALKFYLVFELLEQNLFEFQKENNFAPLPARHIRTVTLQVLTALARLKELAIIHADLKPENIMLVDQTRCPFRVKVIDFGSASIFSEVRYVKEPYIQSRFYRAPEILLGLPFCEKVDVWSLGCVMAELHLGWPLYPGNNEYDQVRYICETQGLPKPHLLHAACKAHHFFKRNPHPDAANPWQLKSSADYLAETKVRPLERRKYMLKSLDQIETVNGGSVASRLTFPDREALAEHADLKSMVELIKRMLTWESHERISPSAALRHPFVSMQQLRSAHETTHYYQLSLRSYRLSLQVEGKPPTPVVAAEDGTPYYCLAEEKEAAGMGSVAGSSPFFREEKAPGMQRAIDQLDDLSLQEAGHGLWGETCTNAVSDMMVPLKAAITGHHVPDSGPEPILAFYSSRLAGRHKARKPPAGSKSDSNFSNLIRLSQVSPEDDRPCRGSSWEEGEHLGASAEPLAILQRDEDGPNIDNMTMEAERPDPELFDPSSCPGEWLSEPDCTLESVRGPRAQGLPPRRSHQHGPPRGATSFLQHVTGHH

[3] = molecular target: Serine/threonine-protein kinase PAK 6 (Homo sapiens) (UniProt Q9NQU5); experiment: Inhibition of human recombinant PAK6 at 500 nM related to control ULK1
[4] = molecular target: Casein kinase I isoform gamma-2 (Homo sapiens) (UniProt P78368); experiment: Inhibition of human recombinant CK1g2 at 500 nM in presence of ATP by radiometric assay relative to control
[5] = molecular target: T3, Mitogen-activated protein kinase kinase kinase 5 (Homo sapiens) (UniProt Q99683); experiment: Inhibition of human recombinant MAP3K5 at 500 nM in presence of ATP by radiometric assay relative to control
T3 sequence (whole entry): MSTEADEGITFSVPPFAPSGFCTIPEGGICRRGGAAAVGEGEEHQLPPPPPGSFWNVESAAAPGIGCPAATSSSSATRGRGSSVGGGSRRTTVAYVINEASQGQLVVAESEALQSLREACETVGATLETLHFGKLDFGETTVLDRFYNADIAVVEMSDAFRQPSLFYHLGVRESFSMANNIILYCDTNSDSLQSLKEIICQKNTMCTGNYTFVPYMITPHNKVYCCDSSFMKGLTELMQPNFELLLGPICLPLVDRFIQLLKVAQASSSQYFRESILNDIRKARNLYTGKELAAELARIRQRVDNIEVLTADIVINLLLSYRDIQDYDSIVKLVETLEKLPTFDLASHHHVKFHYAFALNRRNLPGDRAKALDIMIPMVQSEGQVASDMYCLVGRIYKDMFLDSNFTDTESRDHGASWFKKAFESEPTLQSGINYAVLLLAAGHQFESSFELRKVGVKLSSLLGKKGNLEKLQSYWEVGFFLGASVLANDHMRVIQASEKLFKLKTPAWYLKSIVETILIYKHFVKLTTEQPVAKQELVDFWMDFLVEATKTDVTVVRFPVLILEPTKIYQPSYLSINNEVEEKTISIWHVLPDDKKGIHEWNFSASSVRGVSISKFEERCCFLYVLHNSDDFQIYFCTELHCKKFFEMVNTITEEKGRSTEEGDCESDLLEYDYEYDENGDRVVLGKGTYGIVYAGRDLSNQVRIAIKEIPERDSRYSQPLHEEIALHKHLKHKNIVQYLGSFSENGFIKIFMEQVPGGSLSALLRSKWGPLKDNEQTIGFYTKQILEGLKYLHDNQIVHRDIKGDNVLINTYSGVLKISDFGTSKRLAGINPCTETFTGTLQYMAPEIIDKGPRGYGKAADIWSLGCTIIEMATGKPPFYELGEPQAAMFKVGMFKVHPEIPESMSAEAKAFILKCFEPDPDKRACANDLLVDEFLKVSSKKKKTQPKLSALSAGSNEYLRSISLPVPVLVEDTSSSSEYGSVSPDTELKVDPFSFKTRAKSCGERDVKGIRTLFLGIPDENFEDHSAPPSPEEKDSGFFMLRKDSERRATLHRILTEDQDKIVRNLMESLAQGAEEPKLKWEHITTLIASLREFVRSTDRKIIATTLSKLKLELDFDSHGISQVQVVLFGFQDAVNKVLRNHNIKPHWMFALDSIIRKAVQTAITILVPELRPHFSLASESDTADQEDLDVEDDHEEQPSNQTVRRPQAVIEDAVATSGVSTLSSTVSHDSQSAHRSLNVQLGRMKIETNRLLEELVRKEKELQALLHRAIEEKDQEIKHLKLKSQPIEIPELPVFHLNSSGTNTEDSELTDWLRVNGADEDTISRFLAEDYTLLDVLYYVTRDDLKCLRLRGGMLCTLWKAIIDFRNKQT

[6] = molecular target: Transcription initiation factor TFIID subunit 1-like (Homo sapiens) (UniProt Q8IZX4); experiment: Inhibition of human recombinant TAF1L at 40 nM related to control ULK1
[7] = molecular target: Fibroblast growth factor receptor 3 (Homo sapiens) (UniProt P22607); experiment: Inhibition of human recombinant FGFR3 at 40 nM related to control ULK1
[8] = molecular target: Epithelial discoidin domain-containing receptor 1 (Homo sapiens) (UniProt Q08345); experiment: Inhibition of human recombinant DDR1 at 40 nM in presence of ATP by radiometric assay relative to control
Sequence of Epithelial discoidin domain-containing receptor 1 (Homo sapiens) (Q08345 whole entry, the tested form may be a part): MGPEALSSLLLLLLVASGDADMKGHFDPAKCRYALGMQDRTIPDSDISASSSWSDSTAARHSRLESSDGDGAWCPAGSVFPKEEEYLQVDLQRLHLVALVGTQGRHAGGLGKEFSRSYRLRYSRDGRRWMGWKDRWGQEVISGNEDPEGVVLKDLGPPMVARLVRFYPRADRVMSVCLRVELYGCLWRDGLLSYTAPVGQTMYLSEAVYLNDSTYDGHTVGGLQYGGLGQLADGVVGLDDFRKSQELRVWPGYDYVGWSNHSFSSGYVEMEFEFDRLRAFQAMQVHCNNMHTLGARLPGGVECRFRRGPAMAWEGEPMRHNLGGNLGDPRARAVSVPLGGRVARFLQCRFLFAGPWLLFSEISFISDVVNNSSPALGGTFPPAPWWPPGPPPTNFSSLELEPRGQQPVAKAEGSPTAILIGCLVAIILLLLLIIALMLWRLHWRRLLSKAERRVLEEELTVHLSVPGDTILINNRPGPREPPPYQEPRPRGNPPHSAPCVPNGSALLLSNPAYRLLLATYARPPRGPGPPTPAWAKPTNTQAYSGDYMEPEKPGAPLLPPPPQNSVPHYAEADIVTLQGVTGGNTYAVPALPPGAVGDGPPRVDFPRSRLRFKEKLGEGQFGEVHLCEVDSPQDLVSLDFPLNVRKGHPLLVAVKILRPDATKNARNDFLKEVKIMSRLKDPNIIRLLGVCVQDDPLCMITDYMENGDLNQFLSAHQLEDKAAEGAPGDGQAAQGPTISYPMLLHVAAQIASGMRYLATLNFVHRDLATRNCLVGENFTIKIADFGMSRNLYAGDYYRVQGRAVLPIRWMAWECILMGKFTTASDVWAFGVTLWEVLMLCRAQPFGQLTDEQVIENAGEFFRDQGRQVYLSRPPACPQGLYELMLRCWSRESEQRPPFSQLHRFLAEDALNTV

Sequence of Serine/threonine-protein kinase PAK 6 (Homo sapiens) (Q9NQU5 whole entry, looked up, canonical isoform): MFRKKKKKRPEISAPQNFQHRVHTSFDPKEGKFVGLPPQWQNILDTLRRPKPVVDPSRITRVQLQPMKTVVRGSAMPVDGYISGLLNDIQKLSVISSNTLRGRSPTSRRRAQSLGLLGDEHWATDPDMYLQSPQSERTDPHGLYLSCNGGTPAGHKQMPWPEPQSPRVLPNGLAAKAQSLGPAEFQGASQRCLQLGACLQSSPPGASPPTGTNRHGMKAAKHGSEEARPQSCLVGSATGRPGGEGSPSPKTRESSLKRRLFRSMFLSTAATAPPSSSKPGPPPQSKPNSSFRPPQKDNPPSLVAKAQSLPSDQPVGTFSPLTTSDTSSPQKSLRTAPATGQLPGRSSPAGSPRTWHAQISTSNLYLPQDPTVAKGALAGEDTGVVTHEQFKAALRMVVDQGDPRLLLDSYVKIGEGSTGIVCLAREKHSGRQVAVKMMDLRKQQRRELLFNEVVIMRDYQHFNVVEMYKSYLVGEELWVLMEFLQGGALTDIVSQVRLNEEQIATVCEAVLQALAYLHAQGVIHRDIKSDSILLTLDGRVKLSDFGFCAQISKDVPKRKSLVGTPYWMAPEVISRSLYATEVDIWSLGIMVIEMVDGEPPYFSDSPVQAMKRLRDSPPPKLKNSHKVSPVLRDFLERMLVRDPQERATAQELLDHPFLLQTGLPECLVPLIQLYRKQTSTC
Sequence of Transcription initiation factor TFIID subunit 1-like (Homo sapiens) (Q8IZX4 whole entry): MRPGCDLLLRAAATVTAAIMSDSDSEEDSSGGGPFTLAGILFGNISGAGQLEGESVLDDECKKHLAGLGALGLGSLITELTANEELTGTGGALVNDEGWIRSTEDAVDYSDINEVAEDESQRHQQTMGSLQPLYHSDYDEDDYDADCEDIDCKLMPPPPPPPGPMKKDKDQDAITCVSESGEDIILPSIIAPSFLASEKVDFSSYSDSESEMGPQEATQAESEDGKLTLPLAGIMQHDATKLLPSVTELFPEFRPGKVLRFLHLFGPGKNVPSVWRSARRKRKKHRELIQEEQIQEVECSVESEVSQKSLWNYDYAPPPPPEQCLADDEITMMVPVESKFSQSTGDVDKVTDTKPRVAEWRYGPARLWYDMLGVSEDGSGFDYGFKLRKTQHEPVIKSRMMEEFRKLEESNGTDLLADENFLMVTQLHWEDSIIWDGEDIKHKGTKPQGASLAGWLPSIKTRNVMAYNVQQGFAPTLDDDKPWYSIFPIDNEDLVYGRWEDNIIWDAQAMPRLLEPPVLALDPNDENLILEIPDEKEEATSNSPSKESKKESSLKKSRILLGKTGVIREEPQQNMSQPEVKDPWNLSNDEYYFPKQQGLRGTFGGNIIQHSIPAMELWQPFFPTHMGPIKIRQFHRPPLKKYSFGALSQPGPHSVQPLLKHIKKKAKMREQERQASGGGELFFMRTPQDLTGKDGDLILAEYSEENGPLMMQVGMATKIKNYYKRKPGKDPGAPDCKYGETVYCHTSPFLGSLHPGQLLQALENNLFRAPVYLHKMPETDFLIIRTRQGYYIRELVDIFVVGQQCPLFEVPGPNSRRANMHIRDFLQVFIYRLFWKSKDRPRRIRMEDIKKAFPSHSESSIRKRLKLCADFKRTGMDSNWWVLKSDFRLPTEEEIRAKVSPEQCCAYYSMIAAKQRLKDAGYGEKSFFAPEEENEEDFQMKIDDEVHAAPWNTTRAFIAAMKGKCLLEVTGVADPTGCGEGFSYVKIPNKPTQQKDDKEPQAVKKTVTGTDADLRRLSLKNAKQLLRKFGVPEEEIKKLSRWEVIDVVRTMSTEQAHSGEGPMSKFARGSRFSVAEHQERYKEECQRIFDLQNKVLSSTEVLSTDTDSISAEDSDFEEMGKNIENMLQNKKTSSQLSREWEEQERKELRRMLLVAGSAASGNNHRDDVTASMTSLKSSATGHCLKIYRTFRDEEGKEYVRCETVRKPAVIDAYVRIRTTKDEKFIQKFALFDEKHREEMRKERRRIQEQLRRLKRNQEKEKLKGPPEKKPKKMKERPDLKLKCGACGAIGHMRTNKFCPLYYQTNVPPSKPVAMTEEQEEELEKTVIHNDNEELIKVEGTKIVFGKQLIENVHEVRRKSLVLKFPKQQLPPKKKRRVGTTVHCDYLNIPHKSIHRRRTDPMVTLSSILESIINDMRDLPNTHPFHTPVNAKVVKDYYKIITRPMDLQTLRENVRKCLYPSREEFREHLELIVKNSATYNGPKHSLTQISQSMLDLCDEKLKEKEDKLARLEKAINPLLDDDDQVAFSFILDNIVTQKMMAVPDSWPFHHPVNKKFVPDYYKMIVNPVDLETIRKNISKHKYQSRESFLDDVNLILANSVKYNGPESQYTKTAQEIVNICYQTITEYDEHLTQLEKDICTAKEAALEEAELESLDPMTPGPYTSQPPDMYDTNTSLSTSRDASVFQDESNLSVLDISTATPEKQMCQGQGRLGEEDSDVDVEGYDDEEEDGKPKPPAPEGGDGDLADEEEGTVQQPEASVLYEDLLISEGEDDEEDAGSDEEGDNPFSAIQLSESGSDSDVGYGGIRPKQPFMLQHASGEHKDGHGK
Sequence of Fibroblast growth factor receptor 3 (Homo sapiens) (P22607 23-806 limits assumed): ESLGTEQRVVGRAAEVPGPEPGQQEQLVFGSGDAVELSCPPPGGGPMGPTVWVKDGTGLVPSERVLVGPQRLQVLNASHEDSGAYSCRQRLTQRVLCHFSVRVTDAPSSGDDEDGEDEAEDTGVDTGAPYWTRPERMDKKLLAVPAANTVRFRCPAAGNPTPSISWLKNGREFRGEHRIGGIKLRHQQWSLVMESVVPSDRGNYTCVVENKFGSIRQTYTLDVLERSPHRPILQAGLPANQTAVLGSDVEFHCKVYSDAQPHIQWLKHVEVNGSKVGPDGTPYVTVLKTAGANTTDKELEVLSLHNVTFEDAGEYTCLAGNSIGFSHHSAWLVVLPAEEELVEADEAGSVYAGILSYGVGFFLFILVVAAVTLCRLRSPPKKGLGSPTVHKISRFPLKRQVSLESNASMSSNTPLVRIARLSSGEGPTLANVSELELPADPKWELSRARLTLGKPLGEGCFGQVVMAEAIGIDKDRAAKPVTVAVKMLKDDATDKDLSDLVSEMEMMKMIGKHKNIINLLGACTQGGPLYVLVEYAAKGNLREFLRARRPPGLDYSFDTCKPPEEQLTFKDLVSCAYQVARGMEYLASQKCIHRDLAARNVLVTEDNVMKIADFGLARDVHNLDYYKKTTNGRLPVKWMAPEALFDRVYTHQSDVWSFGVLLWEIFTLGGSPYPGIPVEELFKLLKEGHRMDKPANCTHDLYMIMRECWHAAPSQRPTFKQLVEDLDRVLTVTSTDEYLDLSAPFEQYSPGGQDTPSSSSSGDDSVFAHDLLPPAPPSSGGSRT
Sequence of Casein kinase I isoform gamma-2 (Homo sapiens) (P78368 whole entry, looked up, canonical isoform): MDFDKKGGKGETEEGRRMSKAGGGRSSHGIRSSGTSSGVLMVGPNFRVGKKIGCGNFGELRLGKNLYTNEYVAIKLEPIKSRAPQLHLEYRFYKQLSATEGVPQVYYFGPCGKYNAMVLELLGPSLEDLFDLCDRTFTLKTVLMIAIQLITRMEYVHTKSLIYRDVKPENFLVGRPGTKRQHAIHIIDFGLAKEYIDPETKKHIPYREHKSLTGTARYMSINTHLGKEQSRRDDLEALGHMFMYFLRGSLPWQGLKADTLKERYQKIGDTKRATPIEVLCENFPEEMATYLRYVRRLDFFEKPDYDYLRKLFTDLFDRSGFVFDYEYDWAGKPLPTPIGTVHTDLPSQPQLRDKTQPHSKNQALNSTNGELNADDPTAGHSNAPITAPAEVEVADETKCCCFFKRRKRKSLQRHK

| Compound | fold change (FC) [1] | fold change (FC) [2] | fold change (FC) [3] | inhibition [4] | inhibition [5] | fold change (FC) [6] | fold change (FC) [7] | inhibition [8] |
| --- | --- | --- | --- | --- | --- | --- | --- | --- |
| CNC(=O)c1ccccc1Oc1nc(Nc2cc(OC)c(OC)c(OC)c2)ncc1Br | 0 | 0.12 | 0.26 | 0% | 0% | – | – | – |
| O=C(N[C@@H](C1CC1)C(F)(F)F)c1cc(-c2cnn3cc(-c4ccc(F)cc4)cnc23)cs1 | – | – | – | – | – | 0.64 | 0 | 18% |
